The results in this text go back to ChEMBL document CHEMBL5244223, “l,8-Naphthalimide based DNA intercalators and anticancer agents. A systematic review from 2007 to 2017” (Eur J Med Chem, 2018).

In brackets after ≈: the same amount, converted by molar mass.

For experiment [1], the system named is Sarcoma-180. As to the kind of experiment: Inhibition of DNA synthesis in mouse Sarcoma-180 cells at 8 uM incubated for 30 mins by [3H]-thymidine incorporation based scintillation counter analysis. Format: functional. The settings on record: Sarcoma-180, 0.5 h. (Uptake of a labelled nucleoside into DNA is a usual measure of proliferation.)
The test system of experiment [2] is Sarcoma-180. In words: Antitumor activity against mouse Sarcoma-180 cells xenografted in Swiss mouse assessed as T/C ratio at 0.5 mg/kg, po daily measured upto 7 days. Type of experiment: functional. The settings on record: time <= 7 day.
For experiment [3], the system named is Sarcoma-180. As to the kind of experiment: Inhibition of RNA synthesis in mouse Sarcoma-180 cells at 8 uM incubated for 60 mins by [3H]-uridine incorporation based scintillation counter analysis. Format: functional. The conditions noted are these: Sarcoma-180, 1 h.
Experiment [4] concerns A-375. In words: Antiproliferative activity against human A-375 cells assessed as inhibition of cell proliferation by MTT assay. Type of experiment: functional, cell-based. Background: Formazan colour is commonly taken as a measure of viable cells.
For experiment [5], the system named is HeLa. In words: Antiproliferative activity against human HeLa cells assessed as inhibition of cell proliferation by MTT assay. Format: functional, cell-based.
Experiment [6] relates to P388. In words: Antiproliferative activity against mouse P388 cells assessed as inhibition of cell proliferation by MTT assay. Format: functional, cell-based.
A further experiment concerns Shigella dysenteriae. In words: Antibacterial activity against Shigella dysenteriae assessed as inhibition of bacterial growth by two-fold serial dilution assay. Type of experiment: functional.
Experiment [7] concerns MCF7. As to the kind of experiment: Cytotoxicity against human MCF7 cells assessed as cell growth inhibition by CCK-8 assay. Type of experiment: functional, cell-based.
Another experiment has as its system Proteus vulgaris. In words: Antibacterial activity against Proteus vulgaris assessed as inhibition of bacterial growth by two-fold serial dilution assay. Type of experiment: functional.
The test system of experiment [8] is Sarcoma-180. As to the kind of experiment: Antitumor activity against mouse Sarcoma-180 cells xenografted in Swiss mouse assessed as T/C ratio at 25 mg/kg, po daily measured upto 7 days. Type of experiment: functional. The conditions noted are these: time <= 7 day.
Experiment [9] deals with Ehrlich. As to the kind of experiment: Antitumor activity against mouse EAC cell xenografted in Swiss mouse assessed as T/C ratio at 25 mg/kg, po daily measured upto 7 days. Type of experiment: functional. The settings on record: time <= 7 day.
Experiment [10] relates to Ehrlich. As to the kind of experiment: Antitumor activity against mouse EAC cell xenografted in Swiss mouse assessed as T/C ratio at 40 mg/kg, po daily measured upto 7 days. The settings on record: time <= 7 day. Format: functional.
The subject of experiment [11] is Sarcoma-180. As to the kind of experiment: Antitumor activity against mouse Sarcoma-180 cells xenografted in Swiss mouse assessed as T/C ratio at 40 mg/kg, po daily measured upto 7 days. The conditions noted are these: time <= 7 day. Format: functional.
Experiment [12] has as its system HeLa. In words: Cytotoxicity against human HeLa cells assessed as cell growth inhibition by MTT assay. Type of experiment: functional, cell-based.
Experiment [13] has as its system P388. As to the kind of experiment: Cytotoxicity against mouse P388 cells assessed as cell growth inhibition by MTT assay. Format: functional, cell-based.
In experiment [14] the test system is A-375. In words: Cytotoxicity against human A-375 cells assessed as cell growth inhibition by MTT assay. Format: functional, cell-based.
For the next experiment, the system named is A549. In words: Cytotoxicity against human A549 cells assessed as cell growth inhibition by MTT assay. Type of experiment: functional, cell-based.
Experiment [15] can be described thus: Selectivity ratio of IC50 for cytotoxicity against human HeLa cells under hypoxic condition to IC50 for cytotoxicity against human HeLa cells under aerobic condition. Format: functional.
The subject of experiment [16] is MCF7. In words: Cytotoxicity against human MCF7 cells assessed as cell growth inhibition by MTT assay. Type of experiment: functional, cell-based.
A further experiment deals with HL-60. In words: Cytotoxicity against human HL-60 cells assessed as cell growth inhibition by MTT assay. Format: functional, cell-based.
The subject of another experiment is HCT-8. As to the kind of experiment: Cytotoxicity against human HCT-8 cells assessed as cell growth inhibition by MTT assay. Type of experiment: functional, cell-based.

Usually inhibition stands for the change of the read-out against control, counted positive when it falls. Read a low inhibition as a response near the control. The T/C is the result in the treated group divided by that in the control group, in per cent. In the case of `CN(C)CCN1C(=O)c2cccc3cc([N+](=O)[O-])cc(c23)C1=O` [MITONAFIDE], the inhibition at 8 µM worked out at 99% in the experiment with Sarcoma-180 [1] and 94% with Sarcoma-180 [3]. Besides, in the experiment with Sarcoma-180 [2], the T/C is recorded as 187%.
Broadly, the IC50 is the point on the concentration scale where inhibition reaches its midpoint. Regarding `CN(C)CCNc1ccc2c3c(cccc13)C(=O)N(c1ccc(S(=O)(=O)NC(=O)c3ccc(N4CCN(CC=C(c5ccccc5)c5ccccc5)CC4)cc3)cc1)C2=O`, the IC50 in the experiment on A-375 [4], with HeLa [5] and with P388 [6] was 6.7 µM throughout.
Usually MIC stands for the lowest concentration found to suppress growth. For the molecule `CCNc1ccc2c3c(cccc13)C(=O)N(CC(O)Cn1c([N+](=O)[O-])cnc1C)C2=O` (stereo not given), the MIC is 10 µM (≈ 4.23 µg/mL) in the experiment with Shigella dysenteriae and 2 µM (≈ 0.847 µg/mL) with Proteus vulgaris. Further, in the experiment on MCF7 [7], the half-inhibitory concentration (IC50) was 8.51 µM.
In the case of `O=NN(CCCl)C(=O)NC1CCCCC1` [LOMUSTINE], the figures for the inhibition at 8 µM in the experiment with Sarcoma-180 [1] and in the experiment with Sarcoma-180 [3] were 64% and 90%, respectively. For the same molecule, the T/C is >279% in the experiment with Sarcoma-180 [8] and >240% in the experiment with Ehrlich [9].
`CCN(N=O)C(=O)NCCN1C(=O)c2cccc3cccc(c23)C1=O`: the figures for the inhibition at 8 µM with Sarcoma-180 [1] and with Sarcoma-180 [3] were 65% and 60%, respectively. Moreover, the figures for the T/C with Ehrlich [10] and in the experiment with Sarcoma-180 [11] were 134% and 140%, respectively.
In the case of `COc1ccc2c(CC(=O)OCCN3C(=O)c4cccc5c(N(C)C)ccc(c45)C3=O)c(C)n(C(=O)c3ccc(Cl)cc3)c2c1`, the IC50 with HeLa [12], in the experiment with P388 [13], in the experiment with A-375 [14], in the experiment with A549, with MCF7 [16] and in the experiment with HL-60 was 13.9 µM throughout. Also, the IC50 in the experiment on HCT-8 was 13.9 µM. The “Ratio IC50” value in [15] is 1.3.
